Converted amounts (≈) assume the structure as drawn.
These compounds were tested on Mycobacterium tuberculosis (assay: Antimycobacterial activity against Mycobacterium tuberculosis H37Rv).
Type: functional
Fc1ccc2[nH]c3c(c2c1)SC(c1ccc(Cl)cc1)C3 (stereo unspecified) showed an MIC of 1.56 µg/mL (≈ 5.14 µM).
CC(C)c1ccc(C2Cc3[nH]c4ccc(F)cc4c3S2)cc1 (stereo unspecified) gave an MIC of 0.78 µg/mL (≈ 2.5 µM).
Work on Cc1ccc(C2Cc3[nH]c4ccc(Cl)cc4c3S2)cc1 (stereo unspecified) yielded an MIC of 6.25 µg/mL (≈ 20.8 µM).
CO[C@H]1/C=C/O[C@@]2(C)Oc3c(C)c(O)c4c(O)c(c(/C=N/N5CCN(C)CC5)c(O)c4c3C2=O)NC(=O)/C(C)=C\C=C\[C@H](C)[C@H](O)[C@@H](C)[C@@H](O)[C@@H](C)[C@H](OC(C)=O)[C@@H]1C [RIFAMPIN] gave an MIC of 0.1 µg/mL (≈ 0.122 µM).
Cc1ccc(C2Cc3[nH]c4ccccc4c3S2)cc1 (stereo unspecified) showed an MIC of 6.25 µg/mL (≈ 23.6 µM).
With Brc1ccccc1C1Cc2[nH]c3ccccc3c2S1 (stereo unspecified) the MIC was 3.13 µg/mL (≈ 9.48 µM).
In the case of NC(=O)c1cnccn1 [PYRAZINAMIDE], the MIC is reported as 6.25 µg/mL (≈ 50.8 µM).
Compound Clc1ccccc1C1Cc2[nH]c3ccccc3c2S1 (stereo unspecified) has an MIC of 6.25 µg/mL (≈ 21.9 µM).
NNC(=O)c1ccncc1 [ISONIAZID] showed an MIC of 0.05 µg/mL (≈ 0.365 µM).
Clc1ccc(C2Cc3[nH]c4ccc(Cl)cc4c3S2)cc1 (stereo unspecified) gave an MIC of 12.5 µg/mL (≈ 39 µM).
CC(C)c1ccc(C2Cc3[nH]c4ccccc4c3S2)cc1 (stereo unspecified) showed an MIC of 0.78 µg/mL (≈ 2.66 µM).
Fc1ccc2[nH]c3c(c2c1)SC(c1ccccc1Cl)C3 (stereo unspecified) was tested, and the MIC was 1.76 µg/mL (≈ 5.79 µM).
Clc1ccc(C2Cc3[nH]c4ccc(Cl)cc4c3S2)c(Cl)c1 (stereo unspecified) was tested, and the MIC was 0.78 µg/mL (≈ 2.2 µM).
Work on Fc1ccc(C2Cc3[nH]c4ccc(Cl)cc4c3S2)cc1 (stereo unspecified) yielded an MIC of 3.13 µg/mL (≈ 10.3 µM).
Work on CC[C@@H](CO)NCCN[C@@H](CC)CO [ETHAMBUTOL] yielded an MIC of 1.56 µg/mL (≈ 7.64 µM).
Compound Fc1cccc(C2Cc3[nH]c4ccccc4c3S2)c1 (stereo unspecified) has an MIC of 3.13 µg/mL (≈ 11.6 µM).
In the case of Clc1ccc(C2Cc3[nH]c4ccccc4c3S2)cc1 (stereo unspecified), the MIC is reported as 12.5 µg/mL (≈ 43.7 µM).
Work on Cc1ccc(C2Cc3[nH]c4ccc(F)cc4c3S2)cc1 (stereo unspecified) yielded an MIC of 3.13 µg/mL (≈ 11 µM).
In the case of Fc1ccc2[nH]c3c(c2c1)SC(c1ccccc1)C3 (stereo unspecified), the MIC is reported as 6.25 µg/mL (≈ 23.2 µM).
Clc1ccc2[nH]c3c(c2c1)SC(c1ccccc1Cl)C3 (stereo unspecified) showed an MIC of 3.13 µg/mL (≈ 9.77 µM).
With c1ccc(C2Cc3[nH]c4ccccc4c3S2)cc1 (stereo unspecified) the MIC was 25 µg/mL (≈ 99.5 µM).
With Clc1ccc(C2Cc3[nH]c4ccccc4c3S2)c(Cl)c1 (stereo unspecified) the MIC was 1.76 µg/mL (≈ 5.5 µM).
O=[N+]([O-])c1cccc(C2Cc3[nH]c4ccccc4c3S2)c1 (stereo unspecified) was tested, and the MIC was 1.76 µg/mL (≈ 5.94 µM).
With Fc1ccc2[nH]c3c(c2c1)SC(c1ccc(Cl)cc1Cl)C3 (stereo unspecified) the MIC was 0.4 µg/mL (≈ 1.18 µM).
Clc1ccc2[nH]c3c(c2c1)SC(c1ccccc1)C3 (stereo unspecified) gave an MIC of 12.5 µg/mL (≈ 43.7 µM).
In the case of CC(C)c1ccc(C2Cc3[nH]c4ccc(Cl)cc4c3S2)cc1 (stereo unspecified), the MIC is reported as 0.78 µg/mL (≈ 2.38 µM).

Source: ChEMBL document CHEMBL1151911, “A microwave-assisted facile regioselective Fischer indole synthesis and antitubercular evaluation of novel 2-aryl-3,4-dihydro-2H-thieno[3,2-b]indoles” (2009)
